Results on three compounds are retold here after US20240344136A1, “RESPONSE TO EGFR BLOCKADE” (The Johns Hopkins University, priority 2015, published 2024).

Assay [1] relates to CRC477 tumorgraft with FGFR1 amplification. Nature of the assay: Tumor growth in tumorgraft cohort CRC477. It counts as in vivo, NOD/SCID mice. The conditions noted are these: 6 mice per cohort, combination p<0.01, two-way ANOVA.
Assay [2] concerns CRC343 tumorgraft with MAP2K1 57K>N substitution. Nature of the assay: Tumor growth in tumorgraft cohort CRC343. It counts as in vivo, NOD/SCID mice. The note with it: CRC343, MAP2K1 57K>N; combination p<0.01, two-way ANOVA.
Assay [3] concerns CRC104 tumorgraft with EGFR 465G>E mutation. As to the kind of experiment: Tumor growth in tumorgraft cohort CRC104. It counts as in vivo, NOD/SCID mice. The note with it: CRC104, EGFR 465G>E; n=6 for each arm; p<0.01, two-way ANOVA.
Assay [4] has as its system cetuximab-resistant tumors with 492S>R alterations in EGFR. The note with it: EGFR 492S>R, previous reports (32); cited from earlier work.

Regarding `CCN1CCN(c2ccc(Nc3cc(N(C)C(=O)Nc4c(Cl)c(OC)cc(OC)c4Cl)ncn3)cc2)CC1` [BGJ398, 3-(2,6-dichloro-3,5-dimethoxy-phenyl)-1-{6-[4-(4-ethyl-piperazin-1-yl)-phenylamino]-pyrimidin-4-yl}-1-methyl-urea], the Tumor growth result in assay [1] was “resistant”. For the compound `Cn1cnc2c(F)c(Nc3ccc(Br)cc3Cl)c(C(=O)NOCCO)cc21` [AZD6244], the Tumor growth entry in assay [2] is on record as “unproductive”. On to panitumumab, for which the Tumor growth result in assay [3] is on record as “poorly sensitive”. The “Sensitivity of tumors to therapy” value in assay [4] is “sensitive”.
